Experimental data taken from EP2611798B1, “PYRIDAZINONES, METHOD OF MAKING, AND METHOD OF USE THEREOF” (Gilead Connecticut, Inc., priority 2010, dated 2012).

Each molecule was assayed on CD86 surface expression (assay: CD86 Inhibition Assay (Example 905), inhibition of B cell activity in total mouse splenocytes). Settings: Splenocyte; total mouse splenocytes stimulated with 15 µg/ml IgM for 24 hr; gated on CD19+/7AAD- population.
Format: cell-based, Balb/c mice
Protocol: A CD86 Inhibition assay can be conducted on Formula I compounds for the inhibition of B cell activity using total mouse splenocytes purified from spleens of 8-16 week old Balb/c mice (Example 905).
A generalized procedure for a standard assay for the inhibition of B cell activity that can be used to test Formula I compounds is as follows. Total mouse splenocytes are purified from spleens of 8-16 week old Balb/c mice by red blood cell lysis (BD Pharmingen #555899). Testing compounds are diluted to 0.5% DMSO and incubated with 1.25 x 10^6 splenocytes in a final volume of 200 µl in flat clear bottom plates (Falcon 353072) for 60 min at 37°C. Cells are then stimulated with the addition of 15 µg/ml IgM (Jackson ImmunoResearch 115-006-020), and incubated for 24 hr at 37°C, 5% CO2. Following the 24 hr incubation, cells are transferred to conical bottom clear 96-well plates and pelleted by centrifugation at 1200 x g x 5 min. Cells are preblocked by CD16/CD32 (BD Pharmingen #553142), followed by triple staining with CD19-FITC (BD Pharmingen #553785), CD86-PE (BD Pharmingen #553692), and 7AAD (BD Pharmingen #51-68981E). Cells are sorted on a BD FACSCalibur and gated on the CD19^+/7AAD^- population. The levels of CD86 surface expression on the gated population is measured versus test compound concentration. Exemplary results are in Table 3.

| EC50 [nM] | SMILES |
| --- | --- |
| 192 | Cc1c(-c2cc(Nc3cc4n(n3)CCN(C)C4)c(=O)[nH]n2)cccc1N1Cc2cc(C(C)(C)C)sc2C1=O [Compound 101, 6-(3-{2-tert-butyl-6-oxo-4H,5H,6H-thieno[2,3-c]pyrrol-5-yl}-2-methylphenyl)-4-({5-methyl-4H,5H,6H,7H-pyrazolo[1,5-a]pyrazin-2-yl}amino)-2,3-dihydropyridazin-3-one] |
| 1100 | Cc1c(-c2cc(Nc3cc4n(n3)CCN(C)C4)c(=O)n(C)n2)cc(F)cc1N1Cc2cc(C(C)(C)C)sc2C1=O [Compound 124, 6-(3-{2-tert-butyl-6-oxo-4H,5H,6H-thieno[2,3-c]pyrrol-5-yl}-5-fluoro-2-methylphenyl)-2-methyl-4-({5-methyl-4H,5H,6H,7H-pyrazolo[1,5-a]pyrazin-2-yl}amino)-2,3-dihydropyridazin-3-one] |
| 178 | Cn1nc(-c2cccc(N3Cc4cc(C(C)(C)C)sc4C3=O)c2CO)cc(Nc2cc(C3CC3)[nH]n2)c1=O [Compound 127, 6-(3-{2-tert-butyl-6-oxo-4H,5H,6H-thieno[2,3-c]pyrrol-5-yl}-2-(hydroxymethyl)phenyl)-4-[(5-cyclopropyl-1H-pyrazol-3-yl)amino]-2-methyl-2,3-dihydropyridazin-3-one] |
| 139 | Cc1cc(Nc2cc(-c3cccc(N4Cc5cc(C(C)(C)C)sc5C4=O)c3CO)nn(C)c2=O)nn1C [Compound 131, 6-(3-{2-tert-butyl-6-oxo-4H,5H,6H-thieno[2,3-c]pyrrol-5-yl}-2-(hydroxymethyl)phenyl)-4-[(1,5-dimethyl-1H-pyrazol-3-yl)amino]-2-methyl-2,3-dihydropyridazin-3-one] |
| 113 | CC(=O)N1CCn2nc(Nc3cc(-c4cccc(N5Cc6cc(C(C)(C)C)sc6C5=O)c4CO)nn(C)c3=O)cc2C1 [Compound 132, 6-(3-{2-tert-butyl-6-oxo-4H,5H,6H-thieno[2,3-c]pyrrol-5-yl}-2-(hydroxymethyl)phenyl)-4-({5-acetyl-4H,5H,6H,7H-pyrazolo[1,5-a]pyrazin-2-yl}amino)-2-methyl-2,3-dihydropyridazin-3-one] |
| 206 | Cn1nc(-c2cccc(N3Cc4cc(C(C)(C)C)sc4C3=O)c2CO)cc(Nc2cc3n(n2)CCCOC3)c1=O [Compound 134, 6-(3-{2-tert-butyl-6-oxo-4H,5H,6H-thieno[2,3-c]pyrrol-5-yl}-2-(hydroxymethyl)phenyl)-2-methyl-4-{4H,6H,7H,8H-pyrazolo[3,2-c][1,4]oxazepin-2-ylamino}-2,3-dihydropyridazin-3-one] |
| 704 | Cn1nc(-c2cccc(N3Cc4cc(C(C)(C)C)sc4C3=O)c2CO)cc(Nc2ccncn2)c1=O [Compound 136, 6-(3-{2-tert-butyl-6-oxo-4H,5H,6H-thieno[2,3-c]pyrrol-5-yl}-2-(hydroxymethyl)phenyl)-2-methyl-4-(pyrimidin-4-ylamino)-2,3-dihydropyridazin-3-one] |

| SMILES | EC50 [nM] |
| --- | --- |
| Cc1c(-c2cc(Nc3cc(CN4CC(F)(F)C4)n(C)n3)c(=O)[nH]n2)cccc1N1Cc2cc(C(C)(C)C)sc2C1=O [Compound 119, 6-(3-{2-tert-butyl-6-oxo-4H,5H,6H-thieno[2,3-c]pyrrol-5-yl}-2-methylphenyl)-4-({5-[(3,3-difluoroazetidin-1-yl)methyl]-1-methyl-1H-pyrazol-3-yl}amino)-2,3-dihydropyridazin-3-one] | 352 |
| CN1CCn2nc(Nc3cc(-c4cccc(N5Cc6cc(C(C)(C)C)sc6C5=O)c4CO)nn(C)c3=O)cc2C1 [Compound 120, 6-(3-{2-tert-butyl-6-oxo-4H,5H,6H-thieno[2,3-c]pyrrol-5-yl}-2-(hydroxymethyl)phenyl)-2-methyl-4-({5-methyl-4H,5H,6H,7H-pyrazolo[1,5-a]pyrazin-2-yl}amino)-2,3-dihydropyridazin-3-one] | 189 |

What follows are molecules tested against T1, full length human wildtype Btk (Homo sapiens, UniProt Q06187) (assay: Biochemical Btk Kinase Assay (Example 901)). Settings: time-resolved fluorescence, final ATP concentration 40 µM; alternatively Lanthascreen assay, ATP 25 uM.
T1 construct: V5 (C); 6xHis (C); made in house; host or cells: Sf9 insect cells (baculovirus, pFastBac)
Protocol: Formula I compounds were tested by a standard biochemical Btk Kinase Assay (Example 901). A generalized procedure for a standard biochemical Btk Kinase Assay that can be used to test Formula I compounds is as follows. […] Btk enzyme is prepared as follows: full length human wildtype Btk (accession number NM-000061) with a C-terminal V5 and 6x His tag was subcloned into pFastBac vector for making baculovirus carrying this epitope-tagged Btk. Generation of baculovirus is done based on Invitrogen's instructions detailed in its published protocol "Bac-to-Bac Baculovirus Expression Systems" (Cat. Nos. 10359-016 and 10608-016). Passage 3 virus is used to infect Sf9 cells to overexpress the recombinant Btk protein. The Btk protein is then purified to homogeneity using Ni-NTA column. The purity of the final protein preparation is greater than 95% based on the sensitive Sypro-Ruby staining. A solution of 200 µM ATP is prepared in water and adjusted to pH7.4 with 1N NaOH. A quantity of 1.25 µL of compounds in 5%DMSO is transferred to a 96-well ½ area Costar polystyrene plate. Compounds are tested singly and with an 11-point dose-responsive curve (starting concentration is 10 µM; 1:2 dilution). A quantity of 18.75 µL of master mix minus enzyme (as a negative control) and master mix plus enzyme is transferred to appropriate wells in 96-well ½ area costar polystyrene plate. 5 µL of 200 µM ATP is added to that mixture in the 96-well ½ area Costar polystyrene plate for final ATP concentration of 40 µM. The reaction is allowed to incubate for 1 hour at room temperature. The reaction is stopped with Perkin Elmer 1X detection buffer containing 30 mM EDTA, 20 nM SA-APC, and 1 nM PT66 Ab. The plate is read using time-resolved fluorescence with a Perkin Elmer Envision using excitation filter 330 nm, emission filter 665 nm, and 2nd emission filter 615 nm. IC50 values are subsequently calculated. Alternatively, the Lanthascreen assay can be used to evaluate Btk activity through quantification of its phosphorylated peptide product. The FRET (Fluorescence Resonance Energy Transfer) that occurs between the fluorescein on the peptide product and the terbium on the detection antibody decreases with the addition of inhibitors of Btk that reduce the phosphorylation of the peptide. […] After incubation for 60 minutes at room temperature, the reaction is stopped by the addition of a final concentration of 2 nM Tb-PY20 detection antibody in 60 mM EDTA for 30 minutes at room temperature. Detection is determined on a Perkin Elmer Envision with 340 nm excitation and emission at 495 nm and 520 nm. Exemplary Btk inhibition IC50 values are in Tables and 2.

T1 sequence (Q06187 whole entry): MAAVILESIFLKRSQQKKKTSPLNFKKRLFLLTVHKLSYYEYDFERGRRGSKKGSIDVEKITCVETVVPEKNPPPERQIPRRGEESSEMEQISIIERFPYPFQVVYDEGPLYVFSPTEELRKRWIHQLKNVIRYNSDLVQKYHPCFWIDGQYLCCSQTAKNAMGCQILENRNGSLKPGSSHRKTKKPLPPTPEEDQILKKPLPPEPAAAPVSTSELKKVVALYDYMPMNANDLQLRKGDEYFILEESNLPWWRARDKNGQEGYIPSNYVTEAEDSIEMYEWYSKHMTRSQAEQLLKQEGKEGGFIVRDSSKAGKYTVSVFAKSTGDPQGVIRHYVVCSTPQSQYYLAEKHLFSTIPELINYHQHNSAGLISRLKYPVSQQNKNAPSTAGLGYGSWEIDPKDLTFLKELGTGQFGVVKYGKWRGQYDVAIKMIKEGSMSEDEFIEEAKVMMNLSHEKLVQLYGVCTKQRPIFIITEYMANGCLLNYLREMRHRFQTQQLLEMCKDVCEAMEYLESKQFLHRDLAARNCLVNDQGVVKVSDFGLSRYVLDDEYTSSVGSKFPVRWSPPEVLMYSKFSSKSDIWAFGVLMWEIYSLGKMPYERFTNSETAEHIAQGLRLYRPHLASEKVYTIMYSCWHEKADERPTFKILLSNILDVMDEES

| SMILES | IC50 [nM] |
| --- | --- |
| Cc1c(-c2cc(Nc3cc(C)n(C)n3)c(=O)[nH]n2)cccc1N1Cc2cc(C(C)(C)C)sc2C1=O [Compound 112, 6-(3-{2-tert-butyl-6-oxo-4H,5H,6H-thieno[2,3-c]pyrrol-5-yl}-2-methylphenyl)-4-[(1,5-dimethyl-1 H-pyrazol-3-yl)amino]-2,3-dihydropyridazin-3-one] | 3 |
| Cc1cc(Nc2cc(-c3cccc(N4Cc5cc(C(C)(C)C)sc5C4=O)c3C)n[nH]c2=O)no1 [Compound 115, 6-(3-{2-tert-butyl-6-oxo-4H,5H,6H-thieno[2,3-c]pyrrol-5-yl}-2-methylphenyl)-4-[(5-methyl-1,2-oxazol-3-yl)amino]-2,3-dihydropyridazin-3-one] | 18 |
| Cc1cc(Nc2cc(-c3ccc(F)c(N4Cc5cc(C(C)(C)C)sc5C4=O)n3)n[nH]c2=O)nn1C [Compound 117, 6-(6-{2-tert-butyl-b-oxo-4H,5H,6H-thieno[2,3-c]pyrrol-5-yl}-5-fluoropyridin-2-yl)-4-[(1,5-dimethyl-1H-pyrazol-3-yl)amino]-2,3-dihydropyridazin-3-one] | 45 |
| Cc1c(-c2cc(Nc3nc4c(s3)CNCC4)c(=O)[nH]n2)cccc1N1Cc2cc(C(C)(C)C)sc2C1=O [Compound 118, 6-(3-{2-tert-butyl-6-oxo-4H,5H,6H-thieno[2,3-c]pyrrol-5-yl}-2-methylphenyl)-4-{4H,5H,6H,7H-pyrido[4,3-d][1,3]thiazol-2-ylamino}-2,3-dihydropyridazin-3-one] | 65 |
| Cc1c(-c2cc(Nc3cc(CN4CC(F)(F)C4)n(C)n3)c(=O)[nH]n2)cccc1N1Cc2cc(C(C)(C)C)sc2C1=O [Compound 119, 6-(3-{2-tert-butyl-6-oxo-4H,5H,6H-thieno[2,3-c]pyrrol-5-yl}-2-methylphenyl)-4-({5-[(3,3-difluoroazetidin-1-yl)methyl]-1-methyl-1H-pyrazol-3-yl}amino)-2,3-dihydropyridazin-3-one] | 5 |
| CN1CCn2nc(Nc3cc(-c4cccc(N5Cc6cc(C(C)(C)C)sc6C5=O)c4CO)nn(C)c3=O)cc2C1 [Compound 120, 6-(3-{2-tert-butyl-6-oxo-4H,5H,6H-thieno[2,3-c]pyrrol-5-yl}-2-(hydroxymethyl)phenyl)-2-methyl-4-({5-methyl-4H,5H,6H,7H-pyrazolo[1,5-a]pyrazin-2-yl}amino)-2,3-dihydropyridazin-3-one] | 55 |

What follows are molecules tested on production of CD69 by B lymphocytes in human whole blood (assay: CD69 Whole Blood Assay (Example 907)). Settings: Lymphocyte; human whole blood activated with goat F(ab')2 anti-human IgM, 20 hours; percent CD69 positive cells that are also CD20 positive.
Format: cell-based
Description: A CD69 Whole Blood Assay can be conducted on Formula I compounds to determine the ability of compounds to inhibit the production of CD69 by B lymphocytes in human whole blood activated by crosslinking surface IgM with goat F(ab')2 anti-human IgM (Example 907).
Human blood is obtained from healthy volunteers, with the following restrictions: 1 week drug-free, non-smokers. Blood (approximately 20 mls to test 8 compounds) is collected by venipuncture into Vacutainer® (Becton, Dickinson and Co.) tubes with sodium heparin.
Solutions of Formula I compounds at 10 mM in DMSO are diluted 1:10 in 100% DMSO, then are diluted by three-fold serial dilutions in 100% DMSO for a ten point dose-response curve. The compounds are further diluted 1:10 in PBS and then an aliquot of 5.5 µl of each compound is added in duplicate to a 2 ml 96-well plate; 5.5 µl of 10% DMSO in PBS is added as control and no-stimulus wells. Human whole blood - HWB (100 µl) is added to each well. After mixing the plates are incubated at 37 °C, 5% CO2, 100% humidity for 30 minutes. Goat F(ab')2 anti-human IgM (10 µl of a 500 µg/ml solution, 50 µg/ml final) is added to each well (except the no-stimulus wells) with mixing and the plates are incubated for an additional 20 hours. At the end of the 20 hour incubation, samples are incubated with fluorescent labeled antibodies for 30 minutes, at 37 °C, 5% CO2, 100% humidity. Include induced control, unstained and single stains for compensation adjustments and initial voltage settings. Samples are then lysed with PharM Lyse™ (BD Biosciences Pharmingen) according to the manufacturer's instructions. Samples are then transferred to a 96 well plate suitable to be run on the BD Biosciences HTS 96 well system on the LSRII machine. Data acquired and Mean Fluorescence Intensity values were obtained using BD Biosciences DIVA Software. Results are initially analyzed by FACS analysis software (Flow Jo). […] The IC50 values are calculated by Prism version 5, using a nonlinear regression curve fit.

| IC50 [nM] | SMILES |
| --- | --- |
| 568 | CC(=O)N1CCn2nc(Nc3cc(-c4cccc(N5Cc6cc(C(C)(C)C)sc6C5=O)c4CCO)nn(C)c3=O)cc2C1 [Compound 128, 6-(3-{2-tert-butyl-6-oxo-4H,5H,6H-thieno[2,3-c]pyrrol-5-yl}-2-(2-hydroxyethyl)phenyl)-4-({5-acetyl-4H,5H,6H,7H-pyrazolo[1,5-a]pyrazin-2-yl}amino)-2-methyl-2,3-dihydropyridazin-3-one] |
